Measured values reported in patent US5547674A, “Pharmaceutical preparations derived from European mistletoe” (priority 1995, dated 1996).

Legend:
[1] = Weight change of tumor bearing B6C3F1 mice (toxic effects); assay type: in vivo; details: i.p., 98 mg/kg, qd (1,7,14,21)
Protocol: (§1) The amount of protein in the alkaloidal and viscotoxin fractions were also determined to be within the required fingerprint ranges. Anticancer activities of T4GEN were studied in animals bearing subcutaneous transplants of C3H Mammary adenocarcinoma 16/C. This tumor is maintained as a lung framed tumor in C3H female mice. In this example, tumors (1×10^6 cells) were transplanted (S.C.) in 18-20 g B6C3F1 hybrid female mice. On the following day, the tumor beating animals were randomized and separated into different treatment groups (10 mice per group). There were 15 animals in the control group who received only physiological saline during the treatment periods. The treatments (i.p.) were staged 48 hours after the transplants and given for a duration of 14 days (daily single injections).Animals were weighed on days 5, 9 and 14 to assess toxic effects. Tumors were measured on day 21 post transplants and the results are represented as tumor weights using formula [formula] (l=length of tumor, w=width of tumor expressed in mm).

[2] = system: C3H Mammary adenocarcinoma 16/C; experiment: Growth of subcutaneous transplants of C3H mammary adenocarcinoma 16/C in B6C3F1 female mice; assay type: in vivo; details: i.p., 98 mg/kg, qd (1,7,14,21)
Protocol: as §1

[3] = system: AIDS patients; details: human, in vivo; cited from earlier work
[4] = system: reverse transcriptase; details: cited from earlier work

SMILES | Δ Wts (day 14) [1] | Tumor Weight Inhibition [2] [%] | Tumor Wts (day 21) ([2]; saline controls 0.27) | Tumor Free Animals (day 93) ([2]; saline controls 1/15) | toxic side effects [3] | inhibition of reverse transcriptase [4]
O=c1[nH]cc(F)c(=O)[nH]1 [5FIuorouracil] | +1.77 g | 100 | 0.00 | 0/6 | – | –
Cc1cn([C@H]2C[C@H](N=[N+]=[N-])[C@@H](CO)O2)c(=O)[nH]c1=O [AZT, azidothymidine] | – | – | – | – | serious toxic side effects including immunosuppression | –
Nc1ccn([C@H]2CC[C@@H](CO)O2)c(=O)n1 [ddC, 2',3'-dideoxycytidine] | – | – | – | – | serious toxic side effects including immunosuppression | inhibit reverse transcriptase
OC[C@@H]1CC[C@H](n2cnc3c(O)ncnc32)O1 [ddI, 2',3'-dideoxyinosine] | – | – | – | – | serious toxic side effects including immunosuppression | inhibit reverse transcriptase
